In assay [1] the target is T1, FKBP52 (Homo sapiens, UniProt Q02790).
T1 construct: 400 nM FKBP51FK1, 1600 nM FKBP52FK1
T1 sequence (Q02790 50-138 limits assumed): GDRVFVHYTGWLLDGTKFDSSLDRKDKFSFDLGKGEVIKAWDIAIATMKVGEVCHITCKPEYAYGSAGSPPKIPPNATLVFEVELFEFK
The assay is described as follows: Competitive fluorescence polarization assay, binding to FKBP52. As to conditions: for Ki: fluorescence polarization, FKBP52FK1, fluorescent tracer 20 nM final, 30 min room temperature; for FKBP52 ligand efficiency (LE): LE=(ΔG)/N, ΔG=−RTlnKi, RT=0.6, N non-hydrogen atoms. As for the experimental part: (§1) Binding of the bicyclic compounds to FKBPs was measured using a competitive fluorescence polarization
(§2) The compound library ligand was dissolved in DMSO to reach a 100-times concentrated stock solution. This was used for a 1:1 serial dilution in DMSO. […] For FKBP12, -51FK1 and -52FK1 the binding assays were performed in duplicates in the plate format. The competition curves were analyzed by using SigmaPlot11. Data were fitted to a four parameter logistic curve to deduce the IC50 values.
A general note: Fluorescence polarisation rises when a labelled molecule tumbles more slowly, as on binding a larger partner.

The target in assay [2] is FKBP12 (Homo sapiens, UniProt P62942). The assay can be described thus: Competitive fluorescence polarization assay, binding to FKBP12. As to conditions: for FKBP12 ligand efficiency (LE): LE=(ΔG)/N, ΔG=−RTlnKi, RT=0.6, N non-hydrogen atoms; for Ki: fluorescence polarization, fluorescent tracer 20 nM final, 30 min room temperature. As for the experimental part:
as §1, §2

Assay [3] addresses T2, FKBP51 (Homo sapiens, UniProt Q13451).
T2 construct: 400 nM FKBP51FK1, 1600 nM FKBP52FK1
T2 sequence (Q13451 42-130 limits assumed): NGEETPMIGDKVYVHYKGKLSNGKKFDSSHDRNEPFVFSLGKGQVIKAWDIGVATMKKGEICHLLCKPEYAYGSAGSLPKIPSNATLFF
The assay is described as follows: Competitive fluorescence polarization assay, binding to FKBP51. As to conditions: for FKBP51 ligand efficiency (LE): LE=(ΔG)/N, ΔG=−RTlnKi, RT=0.6, N non-hydrogen atoms; for Ki: fluorescence polarization, FKBP51FK1, fluorescent tracer 20 nM final, 30 min room temperature. How it is done: as §1, §2

Results on 20 compounds are retold here after patent US9371322B2, “Bicyclic aza-amides for treatment of psychiatric disorders” (MAX-PLANCK-GESELLSCHAFT ZUR FÖRDERUNG DER WISSENSCHAFTEN …, priority 2012, dated 2016).

FKBP12, sequence (P62942 whole entry): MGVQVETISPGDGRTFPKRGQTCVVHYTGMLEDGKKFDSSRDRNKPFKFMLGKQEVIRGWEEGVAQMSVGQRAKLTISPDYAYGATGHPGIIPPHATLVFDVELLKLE

Take `COc1ccc(OCCOC(=O)C2CCCCN2C(=O)C(=O)c2cc(OC)c(OC)c(OC)c2)cc1OC` (centres unmarked) [Compound 3a, 2-(3,4-dimethoxyphenoxyl)ethyl 1-(2-oxo-2-(3,4,5-trimethoxy-phenyl)acetyl)piperidine-2-carboxylate, reference compound]: in assay [1], the Ki (usually the equilibrium dissociation constant of an inhibitor or competing ligand from its target) is over 100 µM. Moreover, in assay [2], the “FKBP12 ligand efficiency (LE)” value is 0.22 and the Ki stood at 0.3 ± 0.03 µM.
As for `COc1ccc(OCCOC(=O)C2CCCCN2S(=O)(=O)c2cc(Cl)cc(Cl)c2)cc1OC` (centres unmarked) [Compound 3b, 2-(3,4-dimethoxyphenoxyl)ethyl 1-(3,5-dichlorophenyisulfonyl)-piperidine-2-carboxylate, reference compound], the figures for the inhibition constant (Ki) in assay [1] and in assay [2] were over 100 µM and 0.4 ± 0.006 µM, respectively. Moreover, the “FKBP12 ligand efficiency (LE)” value in assay [2] was 0.27.
With `COc1ccc(OCCOC(=O)C2CCCCN2S(=O)(=O)c2ccc3ncsc3c2)cc1OC` (centres unmarked) [Compound 3c, 2-(3,4-dimethoxyphenoxyl)ethyl 1-(benzo[d]thiazol-6-ylsulfonyl)-piperidine-2-carboxylate, reference compound], the Ki in assay [1] is over 100 µM. For the same compound, in assay [2], the “FKBP12 ligand efficiency (LE)” value was found to be 0.28 and affinity was put at a Ki of 0.1 ± 3e-05 µM.
Turning to `CCOC(=O)C1CCCCN1S(=O)(=O)c1ccc2[nH]c(=O)sc2c1` (centres unmarked) [Compound 3d, ethyl 1-(2-oxo-2,3-dihydrobenzo[d]thiazol-6-ylsulfonyl)piperidine-2-carboxylate, reference compound], the values for the inhibition constant Ki in assay [1] and in assay [2] were over 100 µM and 0.2 ± 0.004 µM, respectively. Further, in assay [2], the “FKBP12 ligand efficiency (LE)” value turned out to be 0.38.
For `COc1ccc(OCCN2CC3CCCC(C2=O)N3C(=O)C(=O)c2cc(OC)c(OC)c(OC)c2)cc1OC` (centres unmarked) [Compound 4a, 1-(3-(2-(3,4-dimethoxyphenoxyl)ethyl)-2-oxo-3,9-diazabicyclo[3.3.1]nonan-9-yl)-2-(3,4,5-trimethoxyphenyl)ethane-1,2-dione, reference compound], in assay [1], the “FKBP52 ligand efficiency (LE)” value is given as 0.15 and the inhibition constant Ki worked out at 79.4 ± 20 µM. Also, in assay [2], the “FKBP12 ligand efficiency (LE)” value stood at 0.24 and affinity was put at a Ki of 0.2 ± 0.01 µM. In assay [3], the “FKBP51 ligand efficiency (LE)” value came to 0.15 and the Ki was found to be 51.1 ± 7.6 µM.
On to `COc1ccc(OCCN2CC3CCCC(C2=O)N3S(=O)(=O)c2cc(Cl)cc(Cl)c2)cc1OC` (centres unmarked) [Compound 4b, 9-(3,5-dichlorophenylsulfonyl)-3-(2-(3,4-dimethoxyphenoxyl)ethyl)-3,9-diazabicyclo[3.3.1]nonan-2-one], for which, in assay [1], the “FKBP52 ligand efficiency (LE)” value worked out at 0.20 and the Ki came to 12.2 ± 3.7 µM. For the same compound, in assay [2], the “FKBP12 ligand efficiency (LE)” value was found to be 0.28 and the Ki came out at 0.14 ± 0.01 µM. Further, in assay [3], the “FKBP51 ligand efficiency (LE)” value worked out at 0.21 and the Ki came to 8.8 ± 1.1 µM.
As for `COc1ccc(OCCN2CC3CCCC(C2=O)N3S(=O)(=O)c2ccc3ncsc3c2)cc1OC` (centres unmarked) [Compound 4c, 9-(benzo[d]thiazol-6-ylsulfonyl)-3-(2-(3,4-dimethoxyphenoxyl)ethyl)-3,9-diazabicyclo[3.3.1]nonan-2-one], in assay [2], the “FKBP12 ligand efficiency (LE)” value stood at 0.24 and the affinity, expressed as Ki, was 0.9 ± 2 µM. In addition, in assay [3], the “FKBP51 ligand efficiency (LE)” value is 0.17 and the inhibitory constant (Ki) stood at 64.8 ± 12.3 µM.
For `COc1ccc(OCCN2CC3CCCC(C2=O)N3S(=O)(=O)c2ccc3[nH]c(=O)sc3c2)cc1OC` (centres unmarked) [Compound 4d, 6-(3-(2-(3,4-dimethoxyphenoxyl)ethyl)-2-oxo-3,9-diazabicyclo[3.3.1]nonan-9-ylsulfonyl)benzo[d]thiazol-2(3H)-one], in assay [2], the “FKBP12 ligand efficiency (LE)” value is recorded as 0.28 and the Ki came to 0.07 ± 0.0004 µM. Moreover, in assay [3], the “FKBP51 ligand efficiency (LE)” value was found to be 0.19 and the Ki turned out to be 13.9 ± 0.9 µM.
For `O=C1NCC2CCCC1N2S(=O)(=O)c1ccc2[nH]c(=O)sc2c1` (centres unmarked) [Compound 4e, 6-(2-oxo-3,9-diazabicyclo[3.3.1]nonan-9-ylsulfonyl)benzo[d]thiazol-2(3H)-one], in assay [1], the “FKBP52 ligand efficiency (LE)” value is recorded as 0.26 and affinity was put at a Ki of 46.4 ± 3.8 µM. For the same compound, in assay [2], the “FKBP12 ligand efficiency (LE)” value stood at 0.42 and the Ki is 0.1 ± 0.0005 µM. Moreover, in assay [3], the “FKBP51 ligand efficiency (LE)” value came to 0.27 and the Ki was 27 ± 1.7 µM.
In the case of `CCN1CC2CCCC(C1=O)N2C(=O)C(=O)c1cc(OC)c(OC)c(OC)c1` (centres unmarked) [Compound 4g, 1-(3-ethyl-2-oxo-3,9-diazabicyclo[3.3.1]nonan-9-yl)-2-(3,4,5-trimethoxyphenyl)ethane-1,2-dione, reference compound], the Ki in assay [1] is over 100 µM. Besides, in assay [2], the “FKBP12 ligand efficiency (LE)” value is given as 0.26 and the affinity corresponds to a Ki of 6.3 ± 0.02 µM.
On to `O=C1C2CCCC(CN1c1ccccc1)N2S(=O)(=O)c1ccc(Cl)cc1` (centres unmarked) [Compound 4h], for which the Ki in assay [1] and in assay [3] was over 100 µM throughout.
As to `COc1ccc(OCCN2CCC3CCCC(C2=O)N3S(=O)(=O)c2cc(Cl)cc(Cl)c2)cc1OC` (centres unmarked) [Compound 5b, 10-(3,5-dichlorophenylsulfonyl)-3-(2-(3,4-dimethoxyphenoxy)ethyl)-3,10-diazabicyclo[4.3.1]decan-2-one], in assay [1], the “FKBP52 ligand efficiency (LE)” value is on record as 0.23 and affinity was put at a Ki of 1.6 ± 0.3 µM. In assay [2], the “FKBP12 ligand efficiency (LE)” value is recorded as 0.32 and the Ki was 0.01 ± 0.002 µM. In assay [3], the “FKBP51 ligand efficiency (LE)” value is given as 0.23 and the affinity, expressed as Ki, was 1.2 ± 0.2 µM.
Regarding `COc1ccc(OCCN2CCC3CCCC(C2=O)N3S(=O)(=O)c2ccc3ncsc3c2)cc1OC` (centres unmarked) [Compound 5c, 10-(benzo[d]thiazol-6-ylsulfonyl)-3-(2-(3,4-dimethoxyphenoxyl)ethyl)-3,10-diazabicyclo[4.3.1]decan-2-one], in assay [1], the “FKBP52 ligand efficiency (LE)” value is 0.21 and the affinity corresponds to a Ki of 3.6 ± 0.5 µM. Besides, in assay [2], the “FKBP12 ligand efficiency (LE)” value was determined as 0.29 and the affinity corresponds to a Ki of 0.03 ± 0.007 µM. Moreover, in assay [3], the “FKBP51 ligand efficiency (LE)” value came out at 0.22 and the Ki amounted to 2.1 ± 0.2 µM.
Take `COc1ccc(OCCN2CCC3CCCC(C2=O)N3S(=O)(=O)c2ccc3[nH]c(=O)sc3c2)cc1OC` (centres unmarked) [Compound 5d, 6-(3-(2-(3,4-dimethoxyphenoxy)ethyl)-2-oxo-3,10-diazabicyclo[4.3.1]decan-10-ylsulfonyl)benzo[d]thiazol-2(3H)-one]: in assay [1], the “FKBP52 ligand efficiency (LE)” value turned out to be 0.22 and affinity was put at a Ki of 1.2 ± 0.2 µM. Also, in assay [2], the “FKBP12 ligand efficiency (LE)” value came out at 0.34 and affinity was put at a Ki of 0.001 ± 0.0003 µM. Moreover, in assay [3], the “FKBP51 ligand efficiency (LE)” value is recorded as 0.24 and affinity was put at a Ki of 0.3 ± 0.02 µM.
As to `O=C1NCCC2CCCC1N2S(=O)(=O)c1ccc2[nH]c(=O)sc2c1` (centres unmarked) [Compound 5e, 6-(2-oxo-3,10-diazabicyclo[4.3.1]decan-10-ylsulfonyl)benzo[d]thiazol-2(3H)-one], in assay [1], the “FKBP52 ligand efficiency (LE)” value is 0.27 and the inhibition constant Ki came out at 22.6 ± 1 µM. In assay [2], the “FKBP12 ligand efficiency (LE)” value is 0.41 and affinity was put at a Ki of 0.06 ± 0.002 µM. In assay [3], the “FKBP51 ligand efficiency (LE)” value is 0.29 and the Ki amounted to 9.8 ± 0.5 µM.
For the compound `CCC(C)(C)C(=O)C(=O)N1C2CCCC1C(=O)N(CCOc1ccc(OC)c(OC)c1)CC2` (centres unmarked) [Compound 5f, 1-(3-(2-(3,4-dimethoxyphenoxyl)ethyl)-2-oxo-3,10-diazabicyclo-[4.3.1]decan-10-yl)-3,3-dimethylpentane-1,2-dione, reference compound], the inhibition constant Ki was over 100 µM in assay [1], 1.5 ± 0.1 µM in assay [2] and over 100 µM in assay [3]. Besides, in assay [2], the “FKBP12 ligand efficiency (LE)” value came to 0.24.
As for `COc1ccc(CCN2CCC3CCCC(C2=O)N3C(=O)C(=O)c2cc(OC)c(OC)c(OC)c2)cc1OC` (centres unmarked) [Compound 5h, 1-(3-(3,4-dimethoxyphenethyl)-2-oxo-3,10-diazabicyclo[4.3.1]-decan-10-yl)-2-(3,4,5-trimethoxyphenyl)ethane-1,2-dione, reference compound], the results for the Ki in assay [1], in assay [2] and in assay [3] were over 100 µM, 1.5 ± 0.04 µM and over 100 µM, respectively. The “FKBP12 ligand efficiency (LE)” value in assay [2] came to 0.21.
`COc1ccc(OCCN2CCC3CCCC(C2=O)N3S(=O)(=O)c2cc(Cl)c(O)c(Cl)c2)cc1OC` (centres unmarked) [Compound 5i, 10-(3,5-dichloro-4-hydroxyphenylsulfonyl)-3-(2-(3,4-dimethoxyphenoxyl)ethyl)-3,10-diazabicyclo[4.3.1]decan-2-one]: in assay [1], the “FKBP52 ligand efficiency (LE)” value is 0.21 and the affinity corresponds to a Ki of 3.5 ± 0.4 µM. In addition, in assay [2], the “FKBP12 ligand efficiency (LE)” value worked out at 0.24 and affinity was put at a Ki of 0.4 ± 0.04 µM. Moreover, in assay [3], the “FKBP51 ligand efficiency (LE)” value came out at 0.23 and the affinity corresponds to a Ki of 1 ± 0.1 µM.
Regarding `C=C[C@H]1CN(CCOc2ccc(OC)c(OC)c2)C(=O)[C@@H]2CCC[C@H]1N2S(=O)(=O)c1cc(Cl)cc(Cl)c1` [Compound 5k, (1S,5S,6R)-10-(3,5-dichlorophenylsulfonyl)-3-(2-(3,4-dimethoxyphenoxyl)ethyl)-5-vinyl-3,10-diazabicyclo[4.3.1]decan-2-one], the Ki in assay [3] is 2.1 ± 0.4 µM.
The same measure, in the same setting: the value for `C=CC[C@@H]1/C=C(\C)C[C@H](C)C[C@H](OC)[C@H]2O[C@@](O)(C(=O)C(=O)N3CCCC[C@H]3C(=O)O[C@H](/C(C)=C/[C@@H]3CC[C@@H](O)[C@H](OC)C3)[C@H](C)[C@@H](O)CC1=O)[C@H](C)C[C@@H]2OC` [FK 506, FK506, reference compound] was 0.028 ± 0.005 µM.
